Assay results: patent US20110207722A1, “TREATMENT OF ANXIETY DISORDERS” (N[…]/S, priority 2008, published 2011)

Test system: Mice
Assay: Marble burying test
Type: in vivo, mouse
Conditions: Compound I 0.05 mg/kg orally 60 min before testing; diazepam 0.03-0.3 mg/kg i.p. 30 min before testing; 30 min test session; n=8
Experimental: FIGS. 1 and 2 show the effect of the compound exo-7-(8-H-8-aza-bicyclo[3.2.1]oct-3-yloxy)-chromen-2-one (Compound I or Cp I) and diazepam, respectively, in the mouse marble burying test. Compound I (0.05-0.2 mg/kg) was administered orally 60 min before testing. Diazepam (0.1-1 mg/kg) was injected via the intraperitoneal (i.p.) route 30 min before testing. *P<0.05, ***P<0.001 vs. vehicle-treated group (Student's t-test, n=8).
Compound I (0.05 mg/kg) was administered orally 60 min before testing. Diazepam (0.03-0.3 mg/kg) was injected via the intraperitoneal (i.p.) route 30 min before testing. Paroxetine (10 mg/kg, i.p., −30 min) served as a positive control. *P<0.05, **P<0.01 vs. vehicle-treated group (Student's t-test, n=8).
Mice were placed for 30 min in novel cages (one mouse per cage, 20×30 cm) in which there were 20 glass marbles (15 mm in diameter) situated in four rows of five placed on top of 5 cm of sawdust. […]

O=c1ccc2ccc(O[C@@H]3C[C@H]4CC[C@@H](C3)N4)cc2o1 [Compound I, exo-7-(8-H-8-aza-bicyclo[3.2.1]oct-3-yloxy)-chromen-2-one]
effect on the activity of diazepam in the mouse marble burying test (number of glass marbles buried): augments the activity of diazepam
